# From patent publication US20260272896A1, “ORAL D[…] OF MITRAGYNINE” (LUCKY 4U EXIMS, priority 2023, published 2026)
# Assay: Long term storage stability of purified Mitragynine
# Assay type: physicochemical
# Details: stored at 2° C.-8° C.
smiles,measurement,value
CC[C@@H]1CN2CCc3c([nH]c4cccc(OC)c34)[C@@H]2C[C@@H]1/C(=C\OC)C(=O)OC [Mitragynine],Storage stability,stable for long term storage
